These results are taken from patent US20170354670A1, “PRODUCT COMPRISING GLUCOSAMINE FOR EXTERNAL APPLICATION” (Vital Medicine, LLC, priority 2016, published 2017).

In this test the test system is foot complaints (tired, achy, sore). Put plainly: Foot bath study of foot pain (100 mm visual analogue scale) versus sucrose sham. It is filed as in vivo, human. An excerpt: Subjects: Normal healthy adults aged 40-75 with daily reported foot complaints (tired, achy, sore) that are not currently taking prescription or over the counter products for symptom relief. An attempt is made to recruit equal numbers of male and female participants. Sample Size: 40 subjects; 20 per group Treatment groups: Soothing foot bath topical fluid application apparatus (Glucosamine KCl), group A; Sham: Sucrose foot bath topical fluid application apparatus, group B. Methods: Recruitment—Questionnaire evaluating health status and foot complaints; including visual analogue scale evaluation of current pain state. Baseline—Questionnaire evaluating health status and foot complaints; including visual analogue scale evaluation of current pain state. Treatment—Subjects are randomly assigned to one of two treatment groups and asked to submerge their right foot in a plastic box that contains 3 liters of room temperature tap water and 2 liters of boiling water plus one packet (50 grams) of the labeled “treatment pack” and stirred until in solution. Label is removed from pack and placed on chart. Foot remains submerged and stopwatch set for 1 hour. At the end of 1 hour, subject foot is dried and subject is asked to mark on the line (100 mm) the current state of their foot pain upon standing. […]

Consider `N[C@H]1C(O)OC(CO)[C@@H](O)[C@@H]1O` (stereo partly drawn) [glucosamine, (3R,4R,5S)-3-Amino-6-(hydroxymethyl)oxane-2,4,5-triol], for which the “pain relief compared with sucrose sham, duration” value (72 hours after treatment, single 1 hour foot bath, 50 grams in 5 liters water, many subjects) was “greater pain relief”. Besides, the “pain relief compared with sucrose sham (group B)” value (healthy adults aged 40-75 with daily foot complaints, right foot submerged 1 hour in 5 liters water with 50 grams treatment pack, visual analogue scale) is on record as “sufficiently better pain relief”.
